From PubChem BioAssay AID248 (DTP/NCI, 2004)
Several values for one entry are separate records, joined by “and”; a condition that tells them apart may be missing. Identical values can stand only once. Toxic doses and inconclusive results are not listed. No stated cut-off is given here; in the data, active means T/C of 150% or more; inactive means T/C below 125%.

Test system: L1210 leukemia ip in BDF1 mice, survival T/C
Assay: NCI In Vivo Anticancer Drug Screen. Data for tumor model L1210 Leukemia (intraperitoneal) in B6D2F1 (BDF1) mice
Conditions: endpoint: mean survival time, higher = longer survival
How it was run: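 Value reflects the ratio of survival in compound-treated mice to survival in vehicle-treated controls, with both groups carrying the same transplanted tumor.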

[1] = dose: 50.0 mg/kg/injection, schedule: Q01DX001 (ip), vehicle: Klucel (hydroxypropylcellulose) (HPC)
[2] = dose: 100.0 mg/kg/injection, schedule: Q01DX001 (ip), vehicle: Klucel (hydroxypropylcellulose) (HPC)
[3] = dose: 200.0 mg/kg/injection, schedule: Q01DX001 (ip), vehicle: Klucel (hydroxypropylcellulose) (HPC)
[4] = dose: 100.0 mg/kg/injection, schedule: Q01DX001 (ip), vehicle: carboxymethylcellulose (CMC)
[5] = dose: 200.0 mg/kg/injection, schedule: Q01DX001 (ip), vehicle: carboxymethylcellulose (CMC)
[6] = dose: 400.0 mg/kg/injection, schedule: Q01DX001 (ip), vehicle: carboxymethylcellulose (CMC)
[7] = dose: 100.0 mg/kg/injection, schedule: Q04DX003 (ip), vehicle: saline
[8] = dose: 200.0 mg/kg/injection, schedule: Q04DX003 (ip), vehicle: saline
[9] = dose: 400.0 mg/kg/injection, schedule: Q04DX003 (ip), vehicle: saline
[10] = dose: 100.0 mg/kg/injection, schedule: Q01DX001 (ip), vehicle: saline
[11] = dose: 200.0 mg/kg/injection, schedule: Q01DX001 (ip), vehicle: saline
[12] = dose: 400.0 mg/kg/injection, schedule: Q01DX001 (ip), vehicle: saline
[13] = dose: 100.0 mg/kg/injection, schedule: Q01DX009 (ip), vehicle: Klucel (hydroxypropylcellulose) (HPC)
[14] = dose: 200.0 mg/kg/injection, schedule: Q01DX009 (ip), vehicle: Klucel (hydroxypropylcellulose) (HPC)
[15] = dose: 400.0 mg/kg/injection, schedule: Q01DX009 (ip), vehicle: Klucel (hydroxypropylcellulose) (HPC)

Measured: T/C

CCSCCC(=O)O
inactive: [1] 97 % of control | [2] 92 % of control | [3] 97 % of control

COc1cc(/C(C)=C2/SC(=S)NC2=O)cc(OC)c1OC
inactive: [4] 92 % of control | [5] 90 % of control | [6] 95 % of control

CCCCS/C=C1\CCC2(C)CCCCC2C1=O (stereo unspecified)
inactive: dose: 100.0 mg/kg/injection, schedule: Q04DX002 (ip), vehicle: saline with Tween-80 100 % of control | dose: 200.0 mg/kg/injection, schedule: Q04DX002 (ip), vehicle: saline with Tween-80 100 % of control | dose: 400.0 mg/kg/injection, schedule: Q04DX002 (ip), vehicle: saline with Tween-80 120 % of control

CCOC(=O)/C(C#N)=C\c1ccc(N(CC)CC)cc1
inactive: [2] 91 % of control | [3] 86 % of control | dose: 400.0 mg/kg/injection, schedule: Q01DX001 (ip), vehicle: Klucel (hydroxypropylcellulose) (HPC) 89 % of control

CCNC(=O)NCc1ccccc1Cl
inactive: dose: 100.0 mg/kg/injection, schedule: Q04DX002 (ip), vehicle: Klucel (hydroxypropylcellulose) (HPC) 97 % of control | dose: 200.0 mg/kg/injection, schedule: Q04DX002 (ip), vehicle: Klucel (hydroxypropylcellulose) (HPC) 102 % of control | dose: 400.0 mg/kg/injection, schedule: Q04DX002 (ip), vehicle: Klucel (hydroxypropylcellulose) (HPC) 112 % of control

COC(=O)C(F)C(Br)C(=O)OC (stereo unspecified)
inactive: dose: 3.12 mg/kg/injection, schedule: Q01DX009 (ip), vehicle: saline with Tween-80 114 % of control | dose: 6.25 mg/kg/injection, schedule: Q01DX009 (ip), vehicle: saline with Tween-80 101 % of control | dose: 12.5 mg/kg/injection, schedule: Q01DX009 (ip), vehicle: saline with Tween-80 103 % of control | dose: 25.0 mg/kg/injection, schedule: Q01DX009 (ip), vehicle: saline with Tween-80 97 % of control | dose: 50.0 mg/kg/injection, schedule: Q01DX009 (ip), vehicle: saline with Tween-80 101 % of control

CC1=CC(=O)OC(C)(C)O1
inactive: dose: 100.0 mg/kg/injection, schedule: Q01DX009 (ip), vehicle: saline 103 % of control | [7] 100 % of control | dose: 200.0 mg/kg/injection, schedule: Q01DX009 (ip), vehicle: saline 101 % of control | [8] 91 % of control | dose: 400.0 mg/kg/injection, schedule: Q01DX009 (ip), vehicle: saline 110 % of control | [9] 98 % of control

Nc1cccn2ncnc12
inactive: [10] 103 % of control | [11] 104 % of control | [12] 97 % of control

N#CCCCCC(=O)c1ccc(O)cc1O
inactive: [1] 97 % of control | [2] 105 % of control | [3] 101 % of control

O=C(N/N=C/c1cc(Cl)ccc1O)C(O)(c1ccccc1)c1ccccc1
inactive: [4] 106 % of control | [5] 97 % of control | [6] 101 % of control

COC1OCC2OC(C)(C)OC2C1OS(=O)(=O)c1ccc(C)cc1 (stereo unspecified)
inactive: dose: 50.0 mg/kg/injection, schedule: Q01DX001 (ip), vehicle: saline 91 % of control | [10] 104 % of control | [11] 102 % of control | [12] 98 % of control and 96 % of control

CC(=O)OCC(=O)c1cc(C)n(C)c(=O)c1CN1C(=O)c2ccccc2C1=O
inactive: dose: 100.0 mg/kg/injection, schedule: Q01DX009 (ip), vehicle: saline with Tween-80 107 % of control | dose: 100.0 mg/kg/injection, schedule: Q04DX003 (ip), vehicle: saline with Tween-80 97 % of control | dose: 200.0 mg/kg/injection, schedule: Q01DX009 (ip), vehicle: saline with Tween-80 102 % of control | dose: 200.0 mg/kg/injection, schedule: Q04DX003 (ip), vehicle: saline with Tween-80 96 % of control | dose: 400.0 mg/kg/injection, schedule: Q01DX009 (ip), vehicle: saline with Tween-80 108 % of control | dose: 400.0 mg/kg/injection, schedule: Q04DX003 (ip), vehicle: saline with Tween-80 96 % of control

c1ccc2c(c1)NC1(CCCCC1)S2
inactive: [13] 99 % of control | dose: 100.0 mg/kg/injection, schedule: Q04DX003 (ip), vehicle: Klucel (hydroxypropylcellulose) (HPC) 104 % of control | [14] 99 % of control | dose: 200.0 mg/kg/injection, schedule: Q04DX003 (ip), vehicle: Klucel (hydroxypropylcellulose) (HPC) 91 % of control | [15] 91 % of control | dose: 400.0 mg/kg/injection, schedule: Q04DX003 (ip), vehicle: Klucel (hydroxypropylcellulose) (HPC) 93 % of control

CSc1nc2c(n1-c1ccccc1)C(=O)C(OS(=O)(=O)c1ccccc1)C(=O)N2 (stereo unspecified)
inactive: dose: 75.0 mg/kg/injection, schedule: Q01DX001 (ip), vehicle: saline with Tween-80 95 % of control | dose: 150.0 mg/kg/injection, schedule: Q01DX001 (ip), vehicle: saline with Tween-80 98 % of control | dose: 300.0 mg/kg/injection, schedule: Q01DX001 (ip), vehicle: saline with Tween-80 98 % of control

CN=C1N[N+]2=CCSCC2(C)S1 (stereo unspecified)
inactive: dose: 0.2 mg/kg/injection, schedule: Q03HX024 (ip), vehicle: saline 90 % of control | dose: 0.39 mg/kg/injection, schedule: Q03HX024 (ip), vehicle: saline 98 % of control | dose: 0.78 mg/kg/injection, schedule: Q03HX024 (ip), vehicle: saline 98 % of control | dose: 1.56 mg/kg/injection, schedule: Q03HX024 (ip), vehicle: saline 95 % of control | dose: 3.13 mg/kg/injection, schedule: Q03HX024 (ip), vehicle: saline 105 % of control

CCCCCCCC/C=C\CCCCCCCC(=O)NCCCOCCOCCOCC
inactive: dose: 75.0 mg/kg/injection, schedule: Q01DX009 (ip), vehicle: saline 97 % of control | dose: 75.0 mg/kg/injection, schedule: Q04DX003 (ip), vehicle: saline 94 % of control | dose: 150.0 mg/kg/injection, schedule: Q01DX009 (ip), vehicle: saline 101 % of control | dose: 150.0 mg/kg/injection, schedule: Q04DX003 (ip), vehicle: saline 90 % of control | dose: 300.0 mg/kg/injection, schedule: Q01DX009 (ip), vehicle: saline 87 % of control | dose: 300.0 mg/kg/injection, schedule: Q04DX003 (ip), vehicle: saline 95 % of control

NC(=NCCCC(NCc1ccccc1)C(=O)O)N[N+](=O)[O-] (stereo unspecified)
inactive: dose: 75.0 mg/kg/injection, schedule: Q01DX009 (ip), vehicle: other 107 % of control | [7] 100 % of control | dose: 150.0 mg/kg/injection, schedule: Q01DX009 (ip), vehicle: other 111 % of control | [8] 102 % of control | dose: 300.0 mg/kg/injection, schedule: Q01DX009 (ip), vehicle: other 107 % of control | [9] 104 % of control | dose: 600.0 mg/kg/injection, schedule: Q01DX009 (ip), vehicle: other 105 % of control

CCN(Cc1ccccc1)c1nn[nH]n1
inactive: [10] 98 % of control | [11] 102 % of control | [12] 102 % of control

Nc1ccc(Cc2ccc(Br)cc2)cc1
inactive: dose: 75.0 mg/kg/injection, schedule: Q01DX001 (ip), vehicle: acetone 91 % of control | dose: 150.0 mg/kg/injection, schedule: Q01DX001 (ip), vehicle: acetone 94 % of control | dose: 300.0 mg/kg/injection, schedule: Q01DX001 (ip), vehicle: acetone 94 % of control

CC(C)(C)CC(C)(C)c1ccc(OCCOc2ccc(C(=O)O)cc2)cc1
inactive: [13] 88 % of control | [14] 92 % of control | [15] 92 % of control
